Like-named read-outs stand apart in the source and are kept apart here.
Biological target: T1, BRD9 (Homo sapiens, UniProt Q9H8M2)
T1 sequence (Q9H8M2 1-597): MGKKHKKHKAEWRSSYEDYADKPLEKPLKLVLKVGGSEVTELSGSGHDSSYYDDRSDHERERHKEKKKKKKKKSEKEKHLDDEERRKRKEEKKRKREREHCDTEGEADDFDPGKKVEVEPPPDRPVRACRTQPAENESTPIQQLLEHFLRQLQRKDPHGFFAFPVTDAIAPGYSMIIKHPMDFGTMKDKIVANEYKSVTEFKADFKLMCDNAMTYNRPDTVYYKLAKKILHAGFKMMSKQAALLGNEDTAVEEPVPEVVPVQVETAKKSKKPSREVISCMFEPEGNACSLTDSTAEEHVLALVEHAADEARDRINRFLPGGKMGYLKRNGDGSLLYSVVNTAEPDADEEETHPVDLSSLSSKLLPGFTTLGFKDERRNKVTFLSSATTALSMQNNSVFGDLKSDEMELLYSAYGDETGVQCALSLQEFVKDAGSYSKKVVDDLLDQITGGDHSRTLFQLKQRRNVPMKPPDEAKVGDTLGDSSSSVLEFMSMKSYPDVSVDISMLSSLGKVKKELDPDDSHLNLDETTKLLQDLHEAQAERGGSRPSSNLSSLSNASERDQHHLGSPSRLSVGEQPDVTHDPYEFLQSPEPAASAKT
Experiment: HiBiT BRD9 degradation assay in 293T.166 (BRD9-HiBiT) cells
Type: cell-based
Set-up: endogenously expressing BRD9 with HiBiT fusion tag via CRISPR; host or cells: 293T.166 (BRD9-HiBiT), also expressing LgBiT ectopically
Details: 293T.166 cells, 2.0 hours, read-out: HiBiT-Degradation 293T.166 BRD9 2.0 hours (DC50)
Method in brief: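 293T.166 cells carrying endogenous CRISPR BRD9-HiBiT and expressing LgBiT treated 2 h at 37° C. with compounds, 11-point half-log titration from 10 μM in duplicate. Remaining BRD9 measured as lytic HiBiT luminescence; untreated cells as negative control, no-reagent wells as positive control.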

COc1cc(-c2cn(C)c(=O)c3cnccc23)cc(Cl)c1C(=O)N1CCC(N2CCC(c3ccc(NC4CCC(=O)NC4=O)cc3)C(F)(F)C2)CC1 (stereo not shown) [Compound 228]
DC50 (Table 1, class symbols): < 100 nM

COc1cc(-c2cn(C)c(=O)c3cnccc23)cc(Cl)c1CN1CCC(CCC2CCN(c3ccc(NC4CCC(=O)NC4=O)cc3C(F)(F)F)CC2)CC1 (stereo not shown) [Compound 149]
DC50 (Table 1, class symbols): < 100 nM

COc1cc(-c2cn(C)c(=O)c3[nH]ncc23)cc(F)c1CN1CCN(C(=O)CN2CCC(c3ccc(NC4CCC(=O)NC4=O)cc3)C(F)(F)C2)CC1 (stereo not shown) [Compound 33]
DC50 (Table 1, class symbols): < 100 nM

COc1cc(-c2cn(C)c(=O)c3cnccc23)cc(Cl)c1CN1CCC(C2CCN(c3ccc(NC4CCC(=O)NC4=O)cc3)CC2)CC1 (stereo not shown) [Compound 72]
DC50 (Table 1, class symbols): < 100 nM

COc1cc(-c2cn(C)c(=O)c3cnccc23)cc(Cl)c1CN1CCC(C2CCN(c3ccc(NC4CCC(=O)NC4=O)cc3F)CC2)C(F)(F)C1 (stereo not shown) [Compound 199]
DC50 (Table 1, class symbols): < 100 nM

COc1cc(-c2cn(C)c(=O)c3[nH]ncc23)cc(OC)c1CN1CC[C@@H](NC(=O)CN2CCC(c3ccc(NC4CCC(=O)NC4=O)cc3)CC2)C1 (stereo in doubt) [Compound 69, N-[1-[[2,6-dimethoxy-4-(6-methyl-7-oxo-1H-pyrazolo[3,4-c]pyridin-4-yl)phenyl]methyl]pyrrolidin-3-yl]-2-[4-[4-[(2,6-dioxo-3-piperidyl)amino]phenyl]-1-piperidyl]acetamide]
DC50 (Table 1, class symbols): 100 to 500 nM

COc1cc(-c2cn(C)c(=O)c3[nH]ncc23)cc(Cl)c1C(=O)N1CCC(C2CCN(c3ccc(NC4CCC(=O)NC4=O)nc3)CC2)CC1 (stereo not shown) [Compound 222]
DC50 (Table 1, class symbols): < 100 nM

COc1cc(-c2cn(C)c(=O)c(C)c2C)cc(Cl)c1CN1CCc2c(CC3CCN(c4ccc(NC5CCC(=O)NC5=O)cc4F)CC3)cccc2C1 (single isomer, unassigned) [Compound 249]
DC50 (Table 2, numeric bound): > 800 nM

COc1cc(-c2cn(C)c(=O)c3cnccc23)cc(OC)c1CN1CCC(N2CCN(c3ccc(NC4CCC(=O)NC4=O)cc3Cl)CC2)C(F)(F)C1 (stereo not shown) [Compound 188]
DC50 (Table 1, class symbols): < 100 nM

COc1cc(-c2cn(C)c(=O)c3cnccc23)cc(F)c1C(=O)N1CCC(N(C)C(=O)N2CCC(c3ccc(NC4CCC(=O)NC4=O)cc3)CC2)CC1 (stereo not shown) [Compound 132]
DC50 (Table 1, class symbols): < 100 nM

COc1cc(-c2cn(C)c(=O)c3cnccc23)cc(Cl)c1C(=O)N1CCC(N(C)C(=O)N2CCC(c3ccc(NC4CCC(=O)NC4=O)cc3F)CC2)CC1 (stereo not shown) [Compound 142]
DC50 (Table 1, class symbols): < 100 nM

COc1cc(-c2cn(C)c(=O)c3cnccc23)cc(F)c1C(=O)N1CCC(N2CCN(c3ccc(NC4CCC(=O)NC4=O)cc3F)CC2)C(F)(F)C1 (stereo not shown) [Compound 226]
DC50 (Table 1, class symbols): < 100 nM

COc1cc(-c2cn(C)c(=O)c(C)c2C)cc(Cl)c1CN1CCC(C2CCN(c3ccc(NC4CCC(=O)NC4=O)cc3F)CC2)C(F)(F)C1 (single isomer, unassigned) [Compound 258]
DC50 (Table 2, class symbols): 100 to 500 nM

COc1cc(-c2cn(C)c(=O)c3[nH]ncc23)cc(Cl)c1CN1CCC(N2CCN(c3ccc(NC4CCC(=O)NC4=O)cc3F)CC2)C(F)(F)C1 (stereo not shown) [Compound 183]
DC50 (Table 1, class symbols): < 100 nM

COc1cc(-c2cn(C)c(=O)c(C)c2C)cc(Cl)c1CN1CCC(C2CCN(c3ccc(NC4CCC(=O)NC4=O)cc3F)CC2)C(F)(F)C1 (single isomer, unassigned) [Compound 259]
DC50 (Table 2, class symbols): < 100 nM

COc1cc(-c2cn(C)c(=O)c3[nH]ncc23)cc(OC)c1CN1CCN(C(=O)Cc2ccc(NC3CCC(=O)NC3=O)cc2F)CC1 (stereo not shown) [Compound 41, 3-[4-[2-[4-[[2,6-dimethoxy-4-(6-methyl-7-oxo-1H-pyrazolo[3,4-c]pyridin-4-yl)phenyl]methyl]piperazin-1-yl]-2-oxo-ethyl]-3-fluoro-anilino]piperidine-2,6-dione]
DC50 (Table 1, class symbols): < 100 nM

COc1cc(-c2cn(C)c(=O)c3cnccc23)cc(Cl)c1C(=O)N1CCc2c(CC3CCN(c4ccc(NC5CCC(=O)NC5=O)cc4F)CC3)ccc(F)c2C1 (stereo not shown) [Compound 239, 3-[4-[4-[[2-[2-chloro-6-methoxy-4-(2-methyl-1-oxo-2,7-naphthyridin-4-yl)benzoyl]-8-fluoro-3,4-dihydro-1H-isoquinolin-5-yl]methyl]-1-piperidyl]-3-fluoro-anilino]piperidine-2,6-dione]
DC50 (Table 1, class symbols): < 100 nM

COc1cc(-c2cn(C)c(=O)c3cnccc23)cc(Cl)c1CN1CCc2c(cccc2CN2CCC(c3ccc(NC4CCC(=O)NC4=O)cc3)C(F)(F)C2)C1 (stereo not shown) [Compound 99]
DC50 (Table 1, class symbols): < 100 nM

COc1cc(-c2cn(C)c(=O)c3cnccc23)cc(OC)c1CN1CCN(C(=O)CC2CCN(c3ccc(NC4CCC(=O)NC4=O)cc3C(F)(F)F)CC2)CC12CC2 (stereo not shown) [Compound 59]
DC50 (Table 1, class symbols): < 100 nM

COc1cc(-c2cn(C)c(=O)c(C)c2C)cc(Cl)c1C(=O)N1CCC(N(C)C(=O)N2CCC(c3ccc(NC4CCC(=O)NC4=O)cc3F)CC2)CC1 (stereo not shown) [Compound 140]
DC50 (Table 1, class symbols): < 100 nM

COc1cc(-c2cn(C)c(=O)c3[nH]ncc23)cc(Cl)c1CN1CCN(C(=O)CN2CCC(c3ccc(NC4CCC(=O)NC4=O)cc3)C(F)(F)C2)CC1 (stereo not shown) [Compound 34]
DC50 (Table 1, class symbols): < 100 nM

COc1cc(-c2cn(C)c(=O)c3[nH]ncc23)cc(OC)c1Cc1ccc(CC(=O)N2CCC(c3ccc(NC4CCC(=O)NC4=O)cc3)CC2)cc1 (stereo not shown) [Compound 207, 3-[4-[1-[2-[4-[[2,6-dimethoxy-4-(6-methyl-7-oxo-1H-pyrazolo[3,4-c]pyridin-4-yl)phenyl]methyl]phenyl]acetyl]-4-piperidyl]anilino]piperidine-2,6-dione]
DC50 (Table 1, class symbols): < 100 nM

COc1cc(-c2cn(C)c(=O)c3[nH]ncc23)cc(Cl)c1CN1CCC(CCC2CCN(c3ccc(NC4CCC(=O)NC4=O)cc3F)CC2)CC1 (stereo not shown) [Compound 148]
DC50 (Table 1, class symbols): < 100 nM

COc1cc(-c2cn(C)c(=O)c3cnccc23)cc(OC)c1CN1CCC(N2CCN(c3ccc(NC4CCC(=O)NC4=O)cc3F)CC2)C(F)(F)C1 (stereo not shown) [Compound 184]
DC50 (Table 1, class symbols): < 100 nM

COc1cc(-c2cn(C)c(=O)c3[nH]ncc23)cc(OC)c1CNc1cccc(C(=O)N2CCC(c3ccc(NC4CCC(=O)NC4=O)cc3)CC2)c1 (stereo not shown) [Compound 166, 3-[4-[1-[3-[[2,6-dimethoxy-4-(6-methyl-7-oxo-1H-pyrazolo[3,4-c]pyridin-4-yl)phenyl]methylamino]benzoyl]-4-piperidyl]anilino]piperidine-2,6-dione]
DC50 (Table 1, class symbols): < 100 nM

COc1cc(-c2cn(C)c(=O)c3[nH]ncc23)cc(Cl)c1CN1CCc2c(cccc2CN2CCC(c3ccc(NC4CCC(=O)NC4=O)cc3)C(F)(F)C2)C1 (stereo not shown) [Compound 100]
DC50 (Table 1, class symbols): < 100 nM

COc1cc(-c2cn(C)c(=O)c(C)c2C)cc(Cl)c1CN1CCC(C2CCN(c3ccc(NC4CCC(=O)NC4=O)cc3F)CC2)CC1 (stereo not shown) [Compound 74]
DC50 (Table 1, class symbols): < 100 nM

COc1cc(-c2cn(C)c(=O)c3[nH]ncc23)cc(Cl)c1CN1CCC(N(C)C(=O)N2CCC(c3ccc(OC4CCC(=O)NC4=O)cc3)CC2)CC1 (stereo not shown) [Compound 120]
DC50 (Table 1, class symbols): < 100 nM

COc1cc(-c2cn(C)c(=O)c(C)c2C)cc(OC)c1CN1C2CCC1CN(C(=O)CC1CCN(c3ccc(NC4CCC(=O)NC4=O)cc3F)CC1)C2 (stereo not shown) [Compound 65]
DC50 (Table 1, class symbols): < 100 nM

CN(C(=O)N1CCC(c2ccc(NC3CCC(=O)NC3=O)cc2F)CC1)C1CCN(C(=O)c2ccc(-c3cn(C)c(=O)c4cnccc34)cc2OC(F)(F)F)CC1 (stereo not shown) [Compound 138]
DC50 (Table 1, class symbols): < 100 nM

COc1cc(-c2cn(C)c(=O)c3[nH]ncc23)cc(Cl)c1CN1CCC(C2CCN(c3ccc(NC4CCC(=O)NC4=O)cc3F)CC2)CC1 (stereo not shown) [Compound 73, 3-[4-[4-[1-[[2-chloro-6-methoxy-4-(6-methyl-7-oxo-1H-pyrazolo[3,4-c]pyridin-4-yl)phenyl]methyl]-4-piperidyl]-1-piperidyl]-3-fluoro-anilino]piperidine-2,6-dione]
DC50 (Table 1, class symbols): < 100 nM

Source: patent US11691972B2, “Compounds for targeted degradation of BRD9” (C4 Therapeutics, Inc., priority 2020, dated 2023)
